Measured values taken from ChEMBL document CHEMBL1142829, “Structure-antioxidant activity relationships of flavonoids isolated from the resinous exudate of Heliotropium sinuatum” (Bioorg Med Chem Lett, 2005).

Assay: Ratio between antioxidant activities determined employing ABTS and DPPH methods

| Structure (SMILES) | Ratio |
| --- | --- |
| COc1cc(OC)c2c(=O)c(OC)c(-c3ccc(O)c(OC)c3)oc2c1 | 125 |
| COc1ccc(-c2cc(=O)c3c(OC)cc(O)cc3o2)cc1O | 126 |
| COc1cc(O)cc2oc(-c3ccc(O)cc3)cc(=O)c12 | 143 |
| COc1cc(O)cc2oc(-c3ccccc3)c(OC(C)=O)c(=O)c12 | 160 |
| COc1cc(O)cc2oc(-c3ccccc3)cc(=O)c12 | 170 |
| COc1cc(-c2oc3cc(O)cc(OC)c3c(=O)c2OC)ccc1O | 6.6 |
| COc1c(-c2ccccc2)oc2cc(O)cc(OC)c2c1=O | 6.8 |
| COc1cc(O)c2c(=O)cc(-c3ccc(O)c(O)c3)oc2c1 | 3.4 |
